Here are results for three compounds from ChEMBL document CHEMBL1123817, “X-ray crystal structure of the opioid ligand naltrexonazine” (J Med Chem, 1987).

SMILES strings stand for the structures.

This assay has as its target Opioid receptor (Rattus norvegicus, UniProt P33533+P34975+P33535). Briefly: Inhibition of [3H]DAMPGO binding was determined using standard binding assay in rat brain homogenates against opioid receptor. It is filed as tissue-based.
In general, IC50 refers to the concentration at which inhibition is half-maximal. Lower therefore signals greater potency in that assay. The compound `Oc1ccc2c3c1O[C@H]1/C(=N/N=C4\CC[C@@]5(O)[C@H]6Cc7ccc(O)c8c7[C@@]5(CCN6CC5CC5)[C@H]4O8)CC[C@@]4(O)[C@@H](C2)N(CC2CC2)CC[C@]314` (mixture of isomers) [NALTREXONAZINE] showed a half-inhibitory concentration (IC50) of 0.35 nM.

On to `Oc1ccc2c3c1O[C@H]1/C(=N/N=C4\CC[C@@]5(O)[C@H]6Cc7ccc(O)c8c7[C@@]5(CCN6CC5CC5)[C@H]4O8)CC[C@@]4(O)[C@@H](C2)N(CC2CC2)CC[C@]314` (stereo in doubt; anti) [NALTREXONAZINE], for which the IC50 was 0.45 nM.

Consider `Oc1ccc2c3c1O[C@H]1/C(=N/N=C4\CC[C@@]5(O)[C@H]6Cc7ccc(O)c8c7[C@@]5(CCN6CC5CC5)[C@H]4O8)CC[C@@]4(O)[C@@H](C2)N(CC2CC2)CC[C@]314` (stereo in doubt; syn) [NALTREXONAZINE], for which the IC50 is 0.47 nM.
